# What was measured:
# [1] = Half-life in human liver microsomes (HLM); assay type: in vitro ADME; details: human liver microsomes 0.78 mg/mL, 1 μM compound, NADPH, 37° C.; for half-life at 1 μM: pH 7.4
# Procedure: Half-Life in Human Liver Microsomes (HLM)
# Test compounds (1 μM) are incubated with 3.3 mM MgCl2 and 0.78 mg/mL HLM (HL101) in 100 mM potassium phosphate buffer (pH 7.4) at 37° C. on the 96-deep well plate. The reaction mixture is split into two groups, a non-P450 and a P450 group. NADPH is only added to the reaction mixture of the P450 group. An aliquot of samples of P450 group is collected at 0, 10, 30, and 60 min time point, where 0 min time point indicated the time when NADPH is added into the reaction mixture of P450 group. […] Collected aliquots are extracted with acetonitrile solution containing an internal standard. […] The compound concentration in supernatant is measured by LC/MS/MS system.
# The half-life value is obtained by plotting the natural logarithm of the peak area ratio of compounds/internal standard versus time. The slope of the line of best fit through the points yields the rate of metabolism (k). This is converted to a half-life value using following equations: Half-life=ln 2/k
# P2X7 receptor = molecular target: T1, P2X7 receptor (Homo sapiens, UniProt Q99572); assay: IL-1β release assay in differentiated THP-1 cells (Example 9); assay type: cell-based; details: THP-1 cells differentiated with LPS and IFN-γ; 30 min pretreatment; BzATP 250 uM; IL-1β by ELISA
# T1 construct: host or cells: THP-1 cells differentiated with LPS and IFN-γ
# T1 sequence (Q99572 1-595): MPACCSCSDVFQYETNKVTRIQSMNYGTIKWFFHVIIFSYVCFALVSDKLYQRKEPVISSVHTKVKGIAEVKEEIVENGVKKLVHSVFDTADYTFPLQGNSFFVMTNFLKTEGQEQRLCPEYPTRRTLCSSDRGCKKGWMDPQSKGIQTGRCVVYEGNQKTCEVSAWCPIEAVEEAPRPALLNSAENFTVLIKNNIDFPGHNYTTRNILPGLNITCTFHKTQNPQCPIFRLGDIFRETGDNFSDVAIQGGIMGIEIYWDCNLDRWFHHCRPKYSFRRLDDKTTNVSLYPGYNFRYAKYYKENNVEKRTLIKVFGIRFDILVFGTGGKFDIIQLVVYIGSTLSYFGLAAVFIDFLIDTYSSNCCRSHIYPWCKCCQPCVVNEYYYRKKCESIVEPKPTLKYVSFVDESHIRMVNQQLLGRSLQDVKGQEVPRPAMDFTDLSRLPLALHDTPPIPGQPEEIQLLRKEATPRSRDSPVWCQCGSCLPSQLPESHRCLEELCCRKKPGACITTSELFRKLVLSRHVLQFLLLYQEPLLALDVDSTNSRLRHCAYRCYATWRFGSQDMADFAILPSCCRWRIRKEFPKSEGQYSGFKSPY
# Procedure: THP-1 cells (ATCC Cat #285-IF-100) are plated in 96 well plates at a concentration of 200,000 cells per well and allowed to differentiate in RPMI-1640 media (ATCC Cat #30-2001) containing 10% FBS, 100 IU/mL penicillin, 100 ug/mL streptomycin, 100 ng/mL LPS and 100 ng/mL IFN-γ for 16 hours. Following differentiation, the cells are treated for an additional 2 hours in RPMI-1640 media containing 100 IU/mL penicillin, 100 ug/mL streptomycin and fresh LPS at 100 ng/mL. The cells are then pretreated for 30 minutes with the compound of interest at the appropriate concentration in RPMI media containing 100 IU/mL penicillin, 100 ug/mL streptomycin. Following the pretreatment 2′,3′-O-(4-benzoylbenzoyl)-adenosine 5′-triphosphate (Sigma Aldrich Cat # B6396) is added to a final concentration of 250 uM, and the cells are incubated for an additional 45 minutes. 30 uL of cell supernatant is then collected and IL-1β levels are determined via ELISA (R&D systems Cat. # HSLB50) according to manufacturer's recommendations using a Tecan Safire plate reader. Background adjusted IL-1β levels of drug treated and non-treated cells are used to calculate the percent inhibition.
# The following compounds have been or can be prepared according to the synthetic methods described herein for example, methods A-AA1. The compounds set forth in Table 1 were tested for activity in a cellular model as described herein. Specifically, cells were pretreated with differing amounts of the compound under test and released IL-1β determined as in Example 9, above. Measurements were made and IC50 values, presented in Table 1, below, were determined by fitting the data to a four parameter logistic equation using GraphPad Prism software (GraphPad Software, Inc). The equation may be expressed by the following formula: Y=Bottom+(Top−Bottom)/(1+10^((Log EC50−X)*HillSlope)) where X is the logarithm of concentration, Y is the response and Y starts at Bottom and goes to Top with a sigmoid shape.
# [2] = Plasma protein binding by equilibrium dialysis, human plasma; assay type: in vitro ADME; details: pH 7.4, equilibrium dialysis 16 hr at 37° C., % Bound
# Procedure: The plasma protein binding of compounds of invention is measured in human and rat plasma, respectively. A stock solution of the tested compound is prepared in 1 mg/mL in DMSO solution. The stock solution is spiked into the blank plasma to get a final compound concentration at 1 μg/mL for testing. Equilibrium dialysis (The equilibrium dialyzer-96TM MWCO 5K Daltons, Harvard Apparatus) method is used for the testing purpose.
# The compound spiked plasma (at […]) and phosphate buffer (0.1 M, pH 7.4), 200 μl each, are added into the opposite sides of the membrane in a 96-well equilibrium dialyzer, respectively. The dialyzer plate is covered and incubated overnight (16 hr) at 37° C. in the 8-plate rotor incubator (Big Shot III 8-plate rotor, Harvard Apparatus). Aliquots (100 μL) are taken from the plasma and the buffer compartments, respectively. The matrix effects are eliminated by adding the same volume of blank plasma into the samples from buffer compartments and adding the same volume of phosphate buffer into the samples from plasma compartments. The samples are extracted by using the regular (3:1) protein precipitation extraction procedure (acetonitrile with internal standard). The supernatants are taken for LC/MS/MS analysis. The percentage of plasma-protein binding can be calculated by using the following method: % Free=[Free Drug/Total Drug]*100=[(Peak Area)buffer/(Peak Area)plasma]*100 % Bound=100−% Free.
# For the purpose of Table 4, the plasma protein binding of each compound is expressed as follows: […]
Compound,Half Life [1],IC50 (P2X7 receptor),"fraction unbound at 16 hr, 1 μg/mL [2]",half-life at 1 μM [1]
"C[C@H](C(N)=O)n1ccc2c(NC(=O)Cc3ccc(C(F)(F)F)cc3)c(Cl)ccc2c1=O [Compound 3, (R)-2-{6-Chloro-1-oxo-5-[2-(4-trifluoromethyl-phenyl)-acetylamino]-1H-isoquinolin-2-yl}-propionamide]",3.3 h,2 nM,,
"C[C@H](CO)n1ccc2c(NC(=O)Cc3ccc(Cl)c(F)c3)c(Cl)ccc2c1=O [Compound 15, 2-(4-Chloro-3-fluoro-phenyl)-N-[6-chloro-2-((R)-2-hydroxy-1-methyl-ethyl)-1-oxo-1,2-dihydro-isoquinolin-5-yl]-acetamide]",1.3 h,6 nM,,
"Cc1ccc2c(=O)n([C@H](C)CO)ccc2c1NC(=O)Cc1ccc(F)c(C(F)(F)F)c1 [Compound 22, 2-(4-Fluoro-3-trifluoromethyl-phenyl)-N-[2-((R)-2-hydroxy-1-methyl-ethyl)-6-methyl-1-oxo-1,2-dihydro-isoquinolin-5-yl]-acetamide]",,0.7 nM,< 0.1,
"C[C@H](CO)n1ccc2c(C(=O)NCc3cccc(C(F)(F)F)c3)c(Cl)ccc2c1=O [Compound 44, 6-Chloro-2-((R)-2-hydroxy-1-methyl-ethyl)-1-oxo-1,2-dihydro-isoquinoline-5-carboxylic acid 3-trifluoromethyl-benzylamide]",,10 nM,,1.1 h
"C[C@H](CO)n1ccc2c(C(=O)NCc3ccc(Cl)c(F)c3)c(Cl)ccc2c1=O [Compound 45, 6-Chloro-2-((R)-2-hydroxy-1-methyl-ethyl)-1-oxo-1,2-dihydro-isoquinoline-5-carboxylic acid 4-chloro-3-fluoro-benzylamide]",,13 nM,,1.6 h
"C[C@H](CO)n1ccc2c(C(=O)NCC3(O)CCCCCC3)c(Cl)ccc2c1=O [Compound 47, 6-Chloro-2-((R)-2-hydroxy-1-methyl-ethyl)-1-oxo-1,2-dihydro-isoquinoline-5-carboxylic acid (1-hydroxy-cycloheptylmethyl)-amide]",,0.8 nM,,0.4 h
"C[C@H](CO)n1ccc2c(C(=O)NCC3(O)CC4CCC3C4)c(Cl)ccc2c1=O (stereo partly drawn) [Compound 53, 6-Chloro-2-((R)-2-hydroxy-1-methyl-ethyl)-1-oxo-1,2-dihydro-isoquinoline-5-carboxylic acid (2-hydroxy-bicyclo[2.2.1]hept-2-ylmethyl)-amide]",,532 nM,,
"C[C@H](CO)n1ccc2c(C(=O)NCC3(O)CCC(C)(C)CC3)c(Cl)ccc2c1=O [Compound 54, (R)-6-chloro-N-((1-hydroxy-4,4-dimethylcyclohexyl)methyl)-2-(1-hydroxypropan-2-yl)-1-oxo-1,2-dihydroisoquinoline-5-carboxamide]",,1 nM,,0.3 h
"C[C@H](CO)n1ccc2c(C(=O)NCC3(O)CCCC(C)(C)C3)c(Cl)ccc2c1=O (stereo partly drawn) [Compound 55, 6-Chloro-2-((R)-2-hydroxy-1-methyl-ethyl)-1-oxo-1,2-dihydro-isoquinoline-5-carboxylic acid(1-hydroxy-3,3-dimethyl-cyclohexylmethyl)-amide]",,1 nM,,

# Now from value to compound:
Half Life [1],IC50 (P2X7 receptor),"fraction unbound at 16 hr, 1 μg/mL [2]",half-life at 1 μM [1],Compound
,5 nM,,,"C[C@H](CO)n1ccc2c(C(=O)NCC3(O)CCCCC3)c(Cl)ccc2c1=O [Compound 57, 6-Chloro-2-((R)-2-hydroxy-1-methyl-ethyl)-1-oxo-1,2-dihydro-isoquinoline-5-carboxylic acid (1-hydroxy-cyclohexylmethyl)-amide]"
,0.01 nM,,,"Cc1ccc2c(=O)n([C@H](C)CN)ccc2c1NC(=O)Cc1ccc(C(F)(F)F)c(F)c1 [Compound 58, N-[2-((R)-2-Amino-1-methyl-ethyl)-6-methyl-1-oxo-1,2-dihydro-isoquinolin-5-yl]-2-(3-fluoro-4-trifluoromethyl-phenyl)-acetamide]"
,2 nM,,,"CNC[C@@H](C)n1ccc2c(NC(=O)Cc3ccc(C(F)(F)F)c(F)c3)c(C)ccc2c1=O [Compound 59, 2-(3-Fluoro-4-trifluoromethyl-phenyl)-N-[6-methyl-2-((R)-1-methyl-2-methylamino-ethyl)-1-oxo-1,2-dihydro-isoquinolin-5-yl]-acetamide]"
,1 nM,,,"Cc1ccc2c(=O)n([C@H](C)CN3CCNCC3)ccc2c1NC(=O)Cc1ccc(C(F)(F)F)c(F)c1 [Compound 60, 2-(3-Fluoro-4-trifluoromethyl-phenyl)-N-[6-methyl-2-((R)-1-methyl-2-piperazin-1-yl-ethyl)-1-oxo-1,2-dihydro-isoquinolin-5-yl]-acetamide]"
,5 nM,0.1 to 0.24,,"C[C@H](CO)n1ccc2c(C(=O)NCC3CCC(F)(F)CC3)c(Cl)ccc2c1=O [Compound 61, (R)-6-Chloro-N-((4,4-difluorocyclohexyl)methyl)-2-(1-hydroxypropan-2-yl)-1-oxo-1,2-dihydroisoquinoline-5-carboxamide]"
,30 nM,,,"Cc1ccc2c(=O)n(C(CO)CO)ccc2c1NC(=O)Cc1ccc(C(F)(F)F)c(F)c1 [Compound 62, 2-(3-Fluoro-4-trifluoromethyl-phenyl)-N-[2-(2-hydroxy-1-hydroxymethyl-ethyl)-6-methyl-1-oxo-1,2-dihydro-isoquinolin-5-yl]-acetamide]"
,0.6 nM,0.25 to 0.49,,"C[C@H](CO)n1ccc2c(C(=O)NCC3(O)CCC4(CC3)CC4)c(Cl)ccc2c1=O [Compound 63, 6-Chloro-2-((R)-1-hydroxypropan-2-yl)-N-((6-hydroxyspiro[2.5]octan-6-yl)methyl)-1-oxo-1,2-dihydroisoquinoline-5-carboxamide]"
,9 nM,0.1 to 0.24,,"Cc1ccc2c(=O)n([C@H](C)CN3CC(O)C3)ccc2c1NC(=O)Cc1ccc(C(F)(F)F)c(F)c1 [Compound 64, 2-(3-Fluoro-4-trifluoromethyl-phenyl)-N-{2-[(R)-2-(3-hydroxy-azetidin-1-yl)-1-methyl-ethyl]-6-methyl-1-oxo-1,2-dihydro-isoquinolin-5-yl}-acetamide]"
,5 nM,,,Cc1ccc2c(=O)n([C@H](C)CN3CC[C@H](N)C3)ccc2c1NC(=O)Cc1ccc(C(F)(F)F)c(F)c1 [Compound 66]
,2 nM,0.1 to 0.24,,Cc1ccc2c(=O)n([C@H](C)CN3CC[C@@H](N)C3)ccc2c1NC(=O)Cc1ccc(C(F)(F)F)c(F)c1 [Compound 67]
,6 nM,,,C[C@H](CO)n1ccc2c(C(=O)NCC3(O)CCC(F)CC3)c(Cl)ccc2c1=O (stereo partly shown) [Compound 69]
